The structures appear in SMILES notation.

One assay deals with EGFR (human) (UniProt P00533). Conditions: a431, dose or concentration not given here.
Sequence of EGFR (human) (P00533 whole entry, looked up): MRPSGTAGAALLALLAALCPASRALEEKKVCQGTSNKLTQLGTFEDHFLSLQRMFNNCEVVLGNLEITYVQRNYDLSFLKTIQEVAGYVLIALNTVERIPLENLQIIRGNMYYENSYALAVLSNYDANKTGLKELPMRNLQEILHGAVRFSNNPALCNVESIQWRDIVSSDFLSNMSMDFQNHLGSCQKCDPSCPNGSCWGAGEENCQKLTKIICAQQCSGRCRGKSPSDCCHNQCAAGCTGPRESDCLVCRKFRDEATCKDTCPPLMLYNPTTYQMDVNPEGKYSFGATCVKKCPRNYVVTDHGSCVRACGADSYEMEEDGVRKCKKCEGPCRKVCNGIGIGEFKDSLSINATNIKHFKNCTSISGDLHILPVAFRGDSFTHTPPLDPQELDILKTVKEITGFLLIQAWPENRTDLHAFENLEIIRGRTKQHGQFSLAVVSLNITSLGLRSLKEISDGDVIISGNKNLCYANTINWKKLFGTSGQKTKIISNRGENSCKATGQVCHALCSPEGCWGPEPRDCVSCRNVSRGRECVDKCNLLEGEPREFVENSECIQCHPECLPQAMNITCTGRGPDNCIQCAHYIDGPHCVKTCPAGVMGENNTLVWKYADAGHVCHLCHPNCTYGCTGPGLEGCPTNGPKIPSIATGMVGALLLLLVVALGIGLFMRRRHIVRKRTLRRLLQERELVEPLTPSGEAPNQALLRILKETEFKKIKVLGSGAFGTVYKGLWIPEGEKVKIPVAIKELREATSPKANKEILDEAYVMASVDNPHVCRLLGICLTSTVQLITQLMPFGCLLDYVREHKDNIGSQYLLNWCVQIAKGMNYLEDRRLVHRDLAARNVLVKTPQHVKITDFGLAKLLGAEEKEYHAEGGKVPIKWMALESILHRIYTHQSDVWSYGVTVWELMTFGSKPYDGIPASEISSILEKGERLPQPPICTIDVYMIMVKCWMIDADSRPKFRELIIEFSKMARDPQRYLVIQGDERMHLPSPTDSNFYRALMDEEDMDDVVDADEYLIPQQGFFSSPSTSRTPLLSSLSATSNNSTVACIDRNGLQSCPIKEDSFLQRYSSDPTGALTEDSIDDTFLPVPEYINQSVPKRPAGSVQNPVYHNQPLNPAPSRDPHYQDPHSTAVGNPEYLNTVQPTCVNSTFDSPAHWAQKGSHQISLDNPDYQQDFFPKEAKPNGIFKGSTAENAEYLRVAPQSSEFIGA
For `COc1cc2ncnc(NC3CC3c3ccccc3)c2cc1OCCCN(C)C` (centres undefined), the inhibition (in general, how much of the control response was suppressed) came to 36%.

Another assay deals with EGFR (human) (UniProt P00533). Conditions: kb.
`COc1cc2ncnc(NCc3cccc(C)c3)c2cc1OC`: the IC50 (in general, the concentration needed to halve the response being measured) came to 1600 nM.
On to `COc1cc2ncnc(NNc3ccc(F)c(Cl)c3)c2cc1OC`, for which the IC50 came out at 780 nM.
As to `COc1cc2ncnc(NC3CC3c3ccccc3)c2cc1OC(C)=O` (centres undefined), the IC50 was 11400 nM.
As for `COc1cc2ncnc(Nc3nnc4ccccc4n3)c2cc1OC`, the IC50 is more than 25000 nM.
On to `COc1cc2ncnc(Nc3nccc4ccccc34)c2cc1OC`, for which the IC50 stood at 1800 nM.
Molecule `COc1cc2ncnc(N3CCc4ccccc43)c2cc1OC` returned an IC50 of 4100 nM.
In turn, `COc1cc2ncnc(NC3CC3c3ccccc3)c2cc1OCCCN(C)C` (centres undefined) registered an IC50 of 310 nM.
In turn, `COc1cc2ncnc(NC3CC3c3ccccc3)c2cc1OCCN1CCOCC1` (centres undefined) returned an IC50 of 570 nM.
Still for that read-out and setting: the value for `COc1cc2ncnc(NC3CCc4ccccc43)c2cc1OC` (centres undefined) was 1730 nM; that for `COc1cc2ncnc(Nc3cncc4ccccc34)c2cc1OC` was 360 nM.
`COc1cc2ncnc(NC3CC3c3ccccc3)c2cc1OC` (centres undefined) showed a 50% inhibitory concentration (IC50) of 140 nM.
`COc1cc2ncnc(Nc3cnc4ccccc4n3)c2cc1OC` returned an IC50 of more than 25000 nM.
Still for that read-out and setting: the value for `COc1cc2ncnc(NC3CC3c3ccccc3)c2cc1O` (centres undefined) was more than 25000 nM.

(Values after the Kinase Knowledgebase extract (Sharma et al. 2016).)
